Measured values: article PMC10500568, “Inhibition of MurA Enzyme from Escherichia coli by Flavonoids and Their Synthetic Analogues” (ACS Omega, 2023)
In brackets after ≈: the same amount, converted by molar mass. Like-named read-outs stand apart in the source and are kept apart here.

Legend:
S. aureus = tested on: S. aureus; set-up: method as in PMID 18313801; settings: cited from earlier work
S. aureus (ATCC 29213) = assay: Antibacterial assay, broth microdilution MIC; type: cell-based, Staphylococcus aureus; settings: for MIC: S. aureus ATCC 29213, 35 °C, 20 h, read-out: MIC S. aureus
Procedure: (§1) To test antimicrobial properties, a broth microdilution method in 96-well plates was used according to Clinical and Laboratory Standards Institute guidelines[31] and European Committee on Antimicrobial Susceptibility Testing ([…]) recommendations.[32] Bacterial suspensions, equivalent to a 0.5 McFarland turbidity standard, were diluted with cation-adjusted Mueller–Hinton broth with TES buffering (ThermoFisher Scientific) to achieve a final inoculum of 10^5 CFU/mL. Compounds dissolved in 100% DMSO at a concentration of 10 mM were mixed with the inoculum and incubated at 35 °C for 20 h.

MurA enzyme from E. coli [1] = molecular target: T1, MurA enzyme from E. coli (Escherichia coli, UniProt P0A749); assay: MurA inhibition assay (malachite green, orthophosphate release); type: biochemical; settings: for inhibitory activity on MurA in at least one of the three assays: residual activity at 100 μM, threshold 50% RA, no preincubation, 30 min preincubation, or 30 min + DTT
Procedure: To determine the inhibition of MurA, the colorimetric assay with malachite green was used to measure the release of orthophosphate generated during the reaction.[30] […] Time-dependent inhibition assays were also performed by preincubating MurA with the 200 μM UNAG substrate and target compounds for 30 min at 37 °C before starting the reaction with the addition of the second substrate 100 μM PEP, resulting in a final mixture volume of 50 μL. The reaction was stopped after a 15 min incubation at 37 °C by adding the Biomol reagent (100 μL, Enzo Life Sciences, New York), and the absorbance was measured after 5 min at 650 nm using a microplate reader (BioTek, Synergy H4). The final concentration of DMSO in the reaction mixture was 5% (v/v), and 1 μM fosfomycin was used as a reference in the MurA assay. The percentage of residual activity was calculated in comparison to the negative controls, which contained only 5% DMSO. IC50 values were determined by measuring residual activities at 7 different concentrations of the compounds and calculated using GraphPad Prism (GraphPad Software, San Diego, California).
The initial screening of flavonoids was performed under three different assay conditions: (1) without preincubation, (2) with a 30 min preincubation, and (3) with the addition of dithiothreitol (DTT) along with a 30 min preincubation. These different conditions were necessary to understand the mechanism of inhibition of each flavonoid. […] To distinguish whether the adduct formed between the inhibitor and the enzyme was covalent or noncovalent, the inhibitory activity was tested in the presence of 0.1 mM DTT.

MurA enzyme from E. coli [2] = molecular target: T1, MurA enzyme from E. coli; assay: MurA dilution assay; type: biochemical; settings: compound at 10 times IC50, 30 min preincubation, then 100-fold dilution
Procedure: The enzyme concentration used was the usual concentration in reactivity assays 100-fold (25 μM). After 30 min of preincubation, the mixture was diluted 100-fold, then the previously described reactivity assay was performed using 100 μM PEP.

E. coli (ATCC 25922) = assay: Antibacterial assay, broth microdilution MIC; type: cell-based, Escherichia coli; settings: E. coli ATCC 25922, 35 °C, 20 h, read-out: MIC E. coli
Procedure: as §1

T1 sequence (P0A749 whole entry): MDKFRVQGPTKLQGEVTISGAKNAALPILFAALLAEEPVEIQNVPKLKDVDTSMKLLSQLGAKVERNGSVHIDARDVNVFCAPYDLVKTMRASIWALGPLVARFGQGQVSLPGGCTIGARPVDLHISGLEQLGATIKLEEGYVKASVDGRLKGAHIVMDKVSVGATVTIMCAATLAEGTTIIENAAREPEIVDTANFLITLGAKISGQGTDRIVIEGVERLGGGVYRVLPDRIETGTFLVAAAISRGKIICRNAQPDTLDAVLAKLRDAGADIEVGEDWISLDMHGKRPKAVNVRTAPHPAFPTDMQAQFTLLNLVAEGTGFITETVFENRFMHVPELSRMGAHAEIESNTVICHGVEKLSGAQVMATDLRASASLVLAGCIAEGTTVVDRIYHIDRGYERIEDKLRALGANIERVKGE

Row | Molecule | antibacterial activity against S. aureus, previous report (S. aureus) | MIC (S. aureus (ATCC 29213); Staphylococcus aureus, ATCC29213) | inhibition of S. aureus growth (S. aureus (ATCC 29213); broth microdilution) | remaining activity at 100 µM (MurA enzyme from E. coli [1]; 100 μM, 30 min preincubation with addition of DTT (0.1 mM), read-out: RA% (residual activity), 30 min + DTT) | remaining activity at 100 µM (MurA enzyme from E. coli [1]; 100 μM, without preincubation, read-out: RA% (residual activity), 0 min) | Hill coefficient, 30 min (MurA enzyme from E. coli [1]; 30 min preincubation) | IC50 (MurA enzyme from E. coli [1]; 30 min preincubation, read-out: IC50, 30 min) | inhibitory activity on MurA in at least one of the three assays (MurA enzyme from E. coli [1]) | RA% (residual activity), dilution assay (MurA enzyme from E. coli [2]) | MIC (E. coli (ATCC 25922); Escherichia coli, ATCC25922) | MIC (S. aureus (ATCC 29213)) | RA% (residual activity), 30 min + DTT (MurA enzyme from E. coli [1]; 100 μM, 30 min preincubation with addition of DTT (0.1 mM)) | RA% (residual activity), 0 min (MurA enzyme from E. coli [1]; 100 μM, without preincubation) | MIC (E. coli (ATCC 25922))
1 | O=c1cc(-c2ccc(O)c(O)c2)oc2cc(O)cc(O)c12 [Compound 17, luteolin] | 50 µg/mL | 125 µM (≈ 35.8 µg/mL) | weak inhibition | 96% | 68% | 1.3 | 41.5 µM | showed inhibitory activity | 91% | > 250 µM |  |  |  | 
2 | myricitrin [Compound 5] |  |  |  |  |  | 0.6 |  | showed inhibitory activity | 97% |  | >250 µM | 106% | 76% | >250 µM
